Consider 31 molecules from ChEMBL document CHEMBL1201862, “PubChem BioAssay data set” (2004).

One assay is described as follows: cells. It is filed as functional.
The target of assay [1] is T1, Mannose-6-phosphate isomerase (Homo sapiens, UniProt P34949).
T1 sequence (P34949 whole entry): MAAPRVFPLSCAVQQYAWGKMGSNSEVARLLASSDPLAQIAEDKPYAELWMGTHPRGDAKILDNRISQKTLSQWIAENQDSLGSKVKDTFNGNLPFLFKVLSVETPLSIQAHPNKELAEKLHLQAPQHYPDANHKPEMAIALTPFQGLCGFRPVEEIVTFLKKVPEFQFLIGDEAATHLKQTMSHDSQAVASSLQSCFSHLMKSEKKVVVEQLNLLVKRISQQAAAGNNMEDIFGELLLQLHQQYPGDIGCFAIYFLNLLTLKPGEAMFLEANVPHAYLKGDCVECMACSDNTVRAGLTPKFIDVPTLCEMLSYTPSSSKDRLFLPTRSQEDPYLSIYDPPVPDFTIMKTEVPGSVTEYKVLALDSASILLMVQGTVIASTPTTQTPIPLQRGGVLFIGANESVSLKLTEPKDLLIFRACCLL
Briefly: MPI inhibition at elevated mannose 6-phosphate – biochemical, fluorescence intensity, high mannose 6-phosphate, primary screen (AID 1220).

The target in assay [2] is T2, RNA-binding protein pos-1 (Caenorhabditis elegans, UniProt G5EF15).
T2 sequence (G5EF15 whole entry): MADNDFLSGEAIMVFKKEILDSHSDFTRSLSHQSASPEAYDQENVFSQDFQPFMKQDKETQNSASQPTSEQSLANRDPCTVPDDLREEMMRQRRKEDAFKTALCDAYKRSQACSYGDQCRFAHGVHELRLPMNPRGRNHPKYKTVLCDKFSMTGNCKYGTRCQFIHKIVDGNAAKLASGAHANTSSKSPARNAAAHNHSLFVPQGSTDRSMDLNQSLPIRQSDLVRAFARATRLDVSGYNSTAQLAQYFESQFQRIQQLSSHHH
Briefly: disruptors of C. elegans POS-1 RNA interaction – biochemical, fluorescence polarization, dose response (AID 1964).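 Further: purified POS-1 fused to maltose binding protein made in E. coli; potency of compounds blocking POS-1 binding to fluorescent RNA.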 A general note: Fluorescence polarisation rises when a labelled molecule tumbles more slowly, as on binding a larger partner.

For assay [3], the target named is T3, Zinc finger protein mex-5 (Caenorhabditis elegans, UniProt Q9XUB2).
T3 sequence (Q9XUB2 whole entry): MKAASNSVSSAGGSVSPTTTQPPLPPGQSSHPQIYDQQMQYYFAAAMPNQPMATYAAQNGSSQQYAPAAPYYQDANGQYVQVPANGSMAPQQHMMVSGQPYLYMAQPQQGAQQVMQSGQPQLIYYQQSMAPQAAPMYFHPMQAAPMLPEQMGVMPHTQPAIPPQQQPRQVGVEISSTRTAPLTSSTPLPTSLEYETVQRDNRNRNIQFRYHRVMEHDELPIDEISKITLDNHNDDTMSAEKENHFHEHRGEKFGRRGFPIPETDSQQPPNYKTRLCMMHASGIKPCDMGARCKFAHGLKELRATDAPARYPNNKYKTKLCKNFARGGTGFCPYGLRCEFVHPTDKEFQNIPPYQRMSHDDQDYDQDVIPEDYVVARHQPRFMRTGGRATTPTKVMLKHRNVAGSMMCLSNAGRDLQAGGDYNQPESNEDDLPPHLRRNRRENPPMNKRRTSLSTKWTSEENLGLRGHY
In words: potency of MEX-5 RNA-binding blockers – biochemical, C. elegans, fluorescence polarization, dose response (AID 1960).

In assay [4] the target is Glucose-6-phosphate 1-dehydrogenase (Homo sapiens, UniProt P11413). In words: inhibition of Homo sapiens G6PD, dose series – biochemical, fluorescence, selectivity assay for P. falciparum G6PD inhibitor project, dose response (AID 504792). It is filed as functional.
Assay [5] is described as follows: NIH-3T3 fibroblast cytotoxicity, dose response, cytotoxicity control, cell-based, fluorescence, Alamar Blue, secondary assay (AID 2327).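 Further: NIH-3T3 mouse fibroblasts cultured with fluconazole at 8 µg/mL.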 In kind it is functional. In general terms: The colour change of resazurin is a common sign of viable cells or microbes.
Assay [6] can be described thus: fluconazole-exposed Candida albicans growth modulators – fluorescence, retest, confirmation (AID 2467). In kind it is functional, cell-based.
Assay [7] addresses T4, Carboxy-terminal domain RNA polymerase II polypeptide A small phosphatase 1 (Homo sapiens, UniProt Q9GZU7).
T4 sequence (Q9GZU7 whole entry): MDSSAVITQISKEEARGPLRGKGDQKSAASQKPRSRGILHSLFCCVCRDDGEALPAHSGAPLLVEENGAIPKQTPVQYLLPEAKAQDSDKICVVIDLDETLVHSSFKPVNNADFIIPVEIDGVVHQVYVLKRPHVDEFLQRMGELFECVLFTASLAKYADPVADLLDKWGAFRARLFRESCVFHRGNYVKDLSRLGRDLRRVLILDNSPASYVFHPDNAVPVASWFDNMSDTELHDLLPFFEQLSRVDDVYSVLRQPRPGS
Briefly: CTDSP1 inhibitors, concentration-response, biochemical, absorbance readout, ultra-high-throughput screen actives (AID 540297). In kind it is functional.

The target in assay [8] is T5, Heat shock factor protein 1 (Mus musculus, UniProt P38532).
T5 sequence (P38532 whole entry): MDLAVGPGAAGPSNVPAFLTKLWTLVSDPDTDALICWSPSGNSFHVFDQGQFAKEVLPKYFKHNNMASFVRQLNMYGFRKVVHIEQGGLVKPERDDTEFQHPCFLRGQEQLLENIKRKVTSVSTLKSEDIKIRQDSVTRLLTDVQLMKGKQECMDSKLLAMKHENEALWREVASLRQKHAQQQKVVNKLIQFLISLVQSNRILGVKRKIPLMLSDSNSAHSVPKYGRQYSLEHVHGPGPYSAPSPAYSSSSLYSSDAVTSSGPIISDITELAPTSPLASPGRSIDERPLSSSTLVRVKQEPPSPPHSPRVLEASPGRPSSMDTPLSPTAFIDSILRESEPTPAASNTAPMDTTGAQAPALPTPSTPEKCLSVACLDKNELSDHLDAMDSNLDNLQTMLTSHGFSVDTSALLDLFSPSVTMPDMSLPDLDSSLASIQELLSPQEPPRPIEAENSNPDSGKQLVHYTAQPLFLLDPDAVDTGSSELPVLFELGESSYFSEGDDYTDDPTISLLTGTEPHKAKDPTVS
In words: enhancement of HSF1-driven luciferase signal – cell-based, NIH3T3, luminescence, dose retest, confirmation (AID 435004).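 Further: stress induced by proteasome inhibitor MG132 added 30 min after compound; luciferase reporter driven by HSF1 response element in NIH3T3 cells; actives raise luminescence as potentiators of the MG132 stress response.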 It is filed as functional.

In assay [9] the target is T6, Rac GTPase-activating protein 1 (Homo sapiens, UniProt Q9H0H5).
T6 sequence (Q9H0H5 whole entry): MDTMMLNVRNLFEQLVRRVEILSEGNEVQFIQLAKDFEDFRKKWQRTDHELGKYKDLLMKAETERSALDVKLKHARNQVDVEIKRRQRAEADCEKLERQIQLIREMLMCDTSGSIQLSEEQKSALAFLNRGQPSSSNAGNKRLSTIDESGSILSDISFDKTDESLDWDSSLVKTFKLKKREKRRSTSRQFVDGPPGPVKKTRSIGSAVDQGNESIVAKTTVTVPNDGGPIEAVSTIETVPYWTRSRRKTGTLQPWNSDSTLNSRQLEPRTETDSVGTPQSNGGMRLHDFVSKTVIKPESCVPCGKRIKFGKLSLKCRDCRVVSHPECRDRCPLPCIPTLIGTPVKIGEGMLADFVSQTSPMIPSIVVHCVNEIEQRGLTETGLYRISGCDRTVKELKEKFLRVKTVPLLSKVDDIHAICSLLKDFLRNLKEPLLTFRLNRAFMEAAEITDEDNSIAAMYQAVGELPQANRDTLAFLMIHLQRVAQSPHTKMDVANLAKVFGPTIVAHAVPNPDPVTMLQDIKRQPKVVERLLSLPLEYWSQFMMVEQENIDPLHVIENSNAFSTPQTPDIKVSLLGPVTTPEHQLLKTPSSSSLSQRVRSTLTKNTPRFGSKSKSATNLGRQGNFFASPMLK
Briefly: blockers of MgcRacGAP-driven Rac1 GTP hydrolysis – biochemical, ADP Hunter fluorescence, primary and confirmatory, confirmation (AID 624330). In kind it is functional.

A further assay concerns the target Genome polyprotein (dengue virus type 2, UniProt P29990). In words: flavivirus cap methylation enzyme inhibition – biochemical, confirmation dose response, primary screen (AID 588689). In kind it is functional.
In the next assay the test system is INS1. Briefly: INS-1E survival protection against cytokine death – cell-based, luminescence, retest, dose response (AID 449756).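 Further: cell death triggered by IL-1 beta plus TNF-alpha plus IFN-gamma mixture; protective hits raise ATP signal compared with cytokine alone wells.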 The following applies: Rattus norvegicus, INS1. In kind it is functional.
Assay [10] can be described thus: viability of uninfected HEp-2 cells – cell-based, HTS, cytotoxicity control for RSV inhibitor project, dose response (AID 2410). In kind it is functional. The note with it: human respiratory syncytial virus.
Assay [11] is described as follows: P. falciparum Dd2 growth inhibitors, dose response, SYBR Green, cherry-picked samples (AID 1159567). In kind it is functional, cell-based.

Activity calls are given as the source filed them. Some results are limits rather than exact numbers.

By IC50 is commonly meant the concentration needed to halve the response being measured. Broadly, the EC50 is the midpoint of the concentration-response curve. As usually defined, the AC50 is the concentration at which the activity in the assay is half-maximal. In general, CC50 refers to the concentration at which the toxic effect on the cells reaches its halfway point.

Glucose-6-phosphate 1-dehydrogenase, sequence (P11413 whole entry): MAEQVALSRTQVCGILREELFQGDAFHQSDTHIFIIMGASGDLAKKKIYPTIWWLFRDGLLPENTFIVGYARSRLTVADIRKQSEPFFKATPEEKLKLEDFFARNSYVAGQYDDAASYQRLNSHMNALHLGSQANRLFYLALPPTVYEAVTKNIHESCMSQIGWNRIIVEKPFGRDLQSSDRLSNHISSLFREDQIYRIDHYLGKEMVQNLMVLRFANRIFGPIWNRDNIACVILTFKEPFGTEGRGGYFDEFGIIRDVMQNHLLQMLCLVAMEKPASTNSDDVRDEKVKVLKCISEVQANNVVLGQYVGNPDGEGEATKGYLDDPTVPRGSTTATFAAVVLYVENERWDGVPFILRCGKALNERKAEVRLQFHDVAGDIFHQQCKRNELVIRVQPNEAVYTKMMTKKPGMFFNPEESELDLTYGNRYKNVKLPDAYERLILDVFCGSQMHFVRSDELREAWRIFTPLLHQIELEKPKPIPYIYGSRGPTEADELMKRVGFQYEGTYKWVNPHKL
Genome polyprotein, sequence (P29990 2492-3391 limits assumed): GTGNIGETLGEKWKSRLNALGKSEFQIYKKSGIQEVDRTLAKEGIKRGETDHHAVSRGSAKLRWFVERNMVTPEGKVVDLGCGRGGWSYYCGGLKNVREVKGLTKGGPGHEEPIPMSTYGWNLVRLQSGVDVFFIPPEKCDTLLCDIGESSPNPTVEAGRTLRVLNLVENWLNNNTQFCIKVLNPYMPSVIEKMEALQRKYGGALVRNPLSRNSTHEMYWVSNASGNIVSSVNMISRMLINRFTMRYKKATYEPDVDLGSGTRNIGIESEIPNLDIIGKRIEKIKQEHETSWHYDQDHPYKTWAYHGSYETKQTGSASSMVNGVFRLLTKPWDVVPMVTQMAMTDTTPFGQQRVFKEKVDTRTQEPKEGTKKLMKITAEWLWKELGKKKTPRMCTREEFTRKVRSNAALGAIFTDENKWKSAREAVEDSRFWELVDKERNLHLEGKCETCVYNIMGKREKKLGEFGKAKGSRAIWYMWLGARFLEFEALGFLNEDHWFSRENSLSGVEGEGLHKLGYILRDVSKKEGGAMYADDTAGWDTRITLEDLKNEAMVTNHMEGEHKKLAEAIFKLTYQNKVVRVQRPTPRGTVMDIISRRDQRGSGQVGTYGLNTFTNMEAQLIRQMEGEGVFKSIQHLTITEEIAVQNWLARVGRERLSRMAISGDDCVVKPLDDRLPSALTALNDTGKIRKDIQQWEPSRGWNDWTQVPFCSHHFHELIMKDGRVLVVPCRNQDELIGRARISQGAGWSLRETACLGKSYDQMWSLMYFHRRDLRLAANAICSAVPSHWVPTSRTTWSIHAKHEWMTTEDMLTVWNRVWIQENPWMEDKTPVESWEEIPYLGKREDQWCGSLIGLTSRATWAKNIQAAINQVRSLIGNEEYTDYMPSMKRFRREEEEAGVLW

With `Cc1ccc(OC(=O)c2sc3ncn(C)c(=O)c3c2C)cc1`, the IC50 in “cells” is 15.2 µM (active). On to `COc1ccc(-n2c(=S)[nH]c3sc4c(c3c2=O)CCc2ccccc2-4)cc1`, for which, in assay [1], the IC50 is 25.7 µM (active). Regarding `Cc1cc(C(=O)O)ccc1-n1c(C)cc(C=C2C(=O)c3ccccc3C2=O)c1C`, the EC50 in assay [2] and in [3] was > 300 µM (not active) each time. In assay [4], the IC50 was > 80 µM (inactive). For `Cc1ccc(C(=O)CC(=O)COc2ccc(Cl)cc2)cc1`, the EC50 in assay [5] was > 150 µM (inconclusive); in assay [6] it was 1.62 µM (active). Turning to `COc1cc(NC(=S)Nc2cccnc2)cc(OC)c1`, the IC50 in assay [1] was > 50 µM (not active). Regarding `O=C(Nc1cccc(S(=O)(=O)NC2=NCCCCC2)c1)C1COc2ccccc2O1` (centres undefined), in [7], the IC50 was 5.75 µM (active). Take `CCn1c(COc2ccc(=O)n(-c3ccccc3)n2)nnc1SCc1cccc(OC)c1`: the EC50 in assay [5] was > 160 µM (inactive); in assay [6], > 38 µM (not active). Take `COc1ccc(C(O)(C(=O)NNc2ccc(C)cc2)c2cccs2)cc1` (centres undefined): the EC50 in [5] was > 160 µM (inactive); in assay [8], > 260 µM (inactive); in assay [6], > 38 µM (not active).

For the molecule `O=c1[nH]c2ccc(NCc3ccccc3OCc3ccc(Cl)cc3)cc2[nH]1`, in assay [4], the IC50 was > 80 µM (inactive).

Turning to `COc1cccc(C(=O)C2CCCN(Cc3cccc4c3OCO4)C2)c1` (centres undefined), the EC50 in [5] is > 160 µM (inactive); in assay [6], > 38 µM (not active). Take `CC(C)OP(=O)(c1ccc(N(C)C)cc1)C(O)c1ccccc1` (centres undefined): the EC50 in assay [5] was > 160 µM (inconclusive); in [6], 3.06 µM (active). Take `Cc1ccc(C(C2=C(O)CC(C)(C)CC2=O)C2C(=O)CC(C)(C)CC2=O)o1` (centres undefined): the IC50 in assay [9] is 56.4 µM (active); at Genome polyprotein it was 60 µM (active). Turning to `Cc1ccc2nc(C)c3c(c2c1)SCC3`, in “cells”, the IC50 is 24.6 µM (active). As for `C[N+]1(C)CC2([N+](=O)[O-])CC=C(Oc3ccccc3)C([N+](=O)[O-])(C2)C1` (centres undefined), the half-inhibitory concentration (IC50) in [7] was 6.82 µM (active). Still for that read-out and setting: the figure for `CCOC(=O)N1CCC(N2Cc3cccc(C(=O)NCc4ccc5c(c4)OCO5)c3C2=O)CC1` is 15 µM (active). In the case of `Cc1c(C(=O)NNC(=O)c2csc(N3CCOCC3)n2)oc2ccccc12`, the IC50 in “cells” was 13.2 µM (active).

In the case of `COC(=O)COc1cccc(NC(=O)c2cccc(C)c2)c1`, the IC50 in “cells” is 17.6 µM (active). Take `COc1ccc(NC(=O)CSc2nc3c(c(-c4cccs4)c2C#N)CN(C)CC3)cc1OC`: the IC50 in [1] is > 50 µM (not active). As for `N=c1oc2ccccc2cc1C(=O)NC1CCCCCC1`, the IC50 in “cells” is > 50 µM (active). For the molecule `O=C1N=C(Nc2ccc(Cl)cc2)/C(=C/c2ccco2)S1`, in assay [7], the IC50 is 1.86 µM (active). On to `COc1cc(NCCCn2ccc(NC(=O)OCc3ccccc3)nc2=O)cc(OC)c1OC`, for which the IC50 in assay [4] is > 80 µM (inactive).

Regarding `CCN(CC)c1ccc(/N=C/c2ccc([N+](=O)[O-])o2)cc1`, the values for the EC50 in assay [5] and in assay [6] were > 150 µM (inactive) and > 38 µM (not active), respectively. Besides, in the assay on INS1, the AC50 was 43.9 µM (active). As for `Cc1ccc(NC(=O)COc2ccc(/C=N\NC(=O)c3cccnc3)cc2)cc1C`, the IC50 in assay [7] was 10 µM (active). As to `CC(C)(C)C(=O)O/N=C1/C(=O)N(c2ccccc2)c2ccccc21`, in assay [7], the IC50 is 7.51 µM (active). In addition, in [10], the CC50 was 26.5 µM (active). On to `C/C(=N/Nc1ccc(C)cc1)C1(C)N(O)C(C)(C)C(c2ccco2)=[N+]1[O-]` (centres undefined), for which the results for the EC50 in [5] and in [6] were 66.1 µM (inconclusive) and > 38 µM (not active), respectively. Regarding `CCCC#Cc1ccc2c(c1)[C@@H]1[C@@H](CCN1S(=O)(=O)c1ccccc1C)[C@@H](CO)N2`, in assay [11], the AC50 is 7.51 µM (active). On the same count and under the same terms, the figure for `N#Cc1cccc(-c2ccc3c(c2)[C@@H]2[C@@H](CCN2Cc2cncnc2)[C@H](CO)N3)c1` is 6.32 µM (active). Regarding `COc1cccc(CN2C[C@@H]3N[C@H](C2)[C@H]3c2ccc(-c3ccncc3)cc2)c1`, the AC50 in [11] was 7.31 µM (active).

With `CCC(=O)N1[C@H](CO)[C@@H](c2ccccc2-c2cccc(C)c2)[C@@H]1C#N`, the AC50 in assay [11] is > 42 µM (inactive). Still for that read-out and setting: the figure for `C/C=C/c1ccc([C@@H]2[C@H](CO)N(CC3CC3)C23CN(C(=O)c2ccc4c(c2)OCO4)C3)cc1` is 4.44 µM (active); for `COc1ccccc1C#Cc1ccc([C@@H]2[C@H](C#N)N(C(=O)C3CCCC3)[C@H]2CO)cc1` it is 5.17 µM (active).
